From patent US20230213525A1, “DETECTING MICROBIAL INFECTION IN WOUNDS” (QUALIZYME DIAGNOSTICS GMBH & CO KG, priority 2016, published 2023)

Assays:
Type in all cases: biochemical
MPO = molecular target: T1, MPO (Homo sapiens, UniProt P05164); experiment: Colorimetric enzyme assay for detection of myeloperoxidase activity; settings: 1 mg/mL, pH 6.4, 5 mM H2O2
T1 sequence (P05164 49-745): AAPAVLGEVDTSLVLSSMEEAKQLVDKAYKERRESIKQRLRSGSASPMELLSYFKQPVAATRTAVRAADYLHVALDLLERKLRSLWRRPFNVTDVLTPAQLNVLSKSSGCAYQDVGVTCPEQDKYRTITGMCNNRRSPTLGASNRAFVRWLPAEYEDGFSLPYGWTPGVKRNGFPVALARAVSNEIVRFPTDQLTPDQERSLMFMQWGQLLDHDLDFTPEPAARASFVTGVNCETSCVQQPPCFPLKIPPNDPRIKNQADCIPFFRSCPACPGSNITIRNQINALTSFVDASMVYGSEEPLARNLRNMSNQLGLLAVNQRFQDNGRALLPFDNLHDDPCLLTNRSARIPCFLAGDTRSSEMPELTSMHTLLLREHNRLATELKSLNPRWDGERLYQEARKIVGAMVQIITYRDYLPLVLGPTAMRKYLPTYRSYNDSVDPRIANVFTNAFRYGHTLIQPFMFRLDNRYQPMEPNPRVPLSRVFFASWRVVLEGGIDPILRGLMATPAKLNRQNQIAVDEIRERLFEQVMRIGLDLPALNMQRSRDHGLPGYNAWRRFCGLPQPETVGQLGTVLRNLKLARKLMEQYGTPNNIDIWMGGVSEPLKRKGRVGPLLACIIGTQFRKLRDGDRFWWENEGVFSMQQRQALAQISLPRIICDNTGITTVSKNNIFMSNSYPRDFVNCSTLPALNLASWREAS

Phospholipase A2 [1] = experiment: Phospholipase A2 based test, liquid system, wound fluid; settings: room temperature, 30 minutes
Protocol: Preparation of diagnostic system. For this diagnostic tool, 4-Nitro-3- octanoylbenzoic acid as Phospholipase A2 - substrate was used. 4-Nitro-3-octanoylbenzoic acid (1.7 mM) is dissolved in assay buffer containing 50 mM Tris/HCl buffer pH 7.2, 150 mM KCL and 10 mM CaC12. 190 µl of the buffer are pipetted into a microtiterplate.
(§1) This mixture is incubated at room temperature for 30 minutes.

Phospholipase A2 [2] = experiment: Phospholipase A2 based test, liquid system, sputum; settings: room temperature, 30 minutes
Protocol: For this diagnostic tool, 4-Nitro-3-octanoylbenzoic acid as Phospholipase A2 - substrate was used. 4-Nitro-3-octanoylbenzoic acid (1.7 mM) is dissolved in assay buffer containing 50 mM Tris/HCl buffer pH 7.2, 150 mM KCL and 10 mM CaC12. 190 µl of the buffer are pipetted into a microtiterplate.
as §1

Myeloperoxidase [3] = molecular target: T2, Myeloperoxidase (Homo sapiens, UniProt P05164); experiment: Myeloperoxidase based test, cellulose based system, sputum; settings: filter paper discs, H202, 5 minutes
T2 sequence (P05164 49-745): T1 sequence (P05164 49-745)
Protocol: 1.5 µl of H202 (50 mM) and 1.5 µl of the substrates (109 mM ABTS, 454 mM TMB, 230 mM Fast Blue, x mM Guaiacol, x mM 4-Amino-3-methoxy benzoic acid) were incubated on small Whatmann Filterpaper discs.

Catalase [4] = experiment: Catalase based test, liquid system, wound fluid; settings: room temperature, 30 minutes
Protocol: For this diagnostic tool: Purpald as substrate for Catalase was used. Purpalt is dissolved in water (50-100 mM). 200 µl of substrate solution are pipetted into a microtiterplate.
as §1

Catalase [5] = experiment: Catalase based test, liquid system, sputum; settings: room temperature, 30 minutes
Protocol: For this diagnostic tool: Purpald as substrate for catalase was used. Purpalt is dissolved in water (50-100 mM?). 200 µl of substrate solution are pipetted into a microtiterplate.
as §1

Myeloperoxidase [6] = molecular target: T2, Myeloperoxidase; experiment: Myeloperoxidase based test, liquid system, sputum; settings: succinate buffer pH 5.4, H202, 5 minutes
Phospholipase C = Phospholipase C based test, liquid system, wound fluid; settings: room temperature, 30 minutes, visual inspection
Protocol: For this diagnostic tool, p-Nitrophenylphosphorylcholine as substrate for Phospholipase C was used. p-Mtrophenylphosphorylcholine is dissolved in water (50-100 mM). A 250 mM: Tris/HCi buffer with 70% Sorbitol pH 7.2 was used as assay buffer. 230 µl of the buffer and 100 µl of the substrate are pipetted into a microtiterplate.
as §1

[7] = infected wound fluid samples A, B, C
[8] = non infected wound fluid samples D, E, F
[9] = infected sputum samples A, B, C
[10] = non infected sputum samples D, E, F

Structure (SMILES): Nc1ccc(C(=O)O)cc1N [3,4-Diamino benzoic acid]
- colour of solution upon MPO oxidation (MPO): turned brownish

Structure (SMILES): CCCCCCCC(=O)c1cc(C(=O)O)ccc1[N+](=O)[O-] [4-Nitro-3-octanoylbenzoic acid]
- Test response (Phospholipase A2 [1]; [7]): yellow
- Test response (Phospholipase A2 [1]; [8]): No colour change
- Test response (Phospholipase A2 [2]; [9]): yellow
- Test response (Phospholipase A2 [2]; [10]): No colour change

Structure (SMILES): COc1cc(C(=O)O)ccc1N [Compound 4A3Mba, 4-Amino-3-methoxy benzoic acid]
- Test response (Myeloperoxidase [3]; infected sputum samples A, B): brown
- Test response (Myeloperoxidase [3]; non infected sputum samples C, D): No colour change

Structure (SMILES): NNc1n[nH]c(=S)n1N [Purpald]
- Test response (Catalase [4]; [7]): yellow
- Test response (Catalase [4]; [8]): No colour change
- Test response (Catalase [5]; [9]): yellow
- Test response (Catalase [5]; non-infected sputum samples D, E, F): No colour change

Structure (SMILES): Cc1cc(-c2cc(C)c(N)c(C)c2)cc(C)c1N [TMB, 3, 3′, 5, 5′ -Tetramethylbenzidine]
- Test response (Myeloperoxidase [6]; [9]): blue
- Test response (Myeloperoxidase [6]; [10]): No colour change

Structure (SMILES): C[N+](C)(C)CCOP(=O)([O-])Oc1ccc([N+](=O)[O-])cc1 [p-Nitrophenylphosphorylcholine]
- Test response (Phospholipase C; [7]): yellow
- Test response (Phospholipase C; non-infected wound fluid samples D, E, F): No colour change
